# Results: ChEMBL document CHEMBL1201862, “PubChem BioAssay data set” (2004)
# Calls of active or inactive are those of the source.
# Columns and labels:
# [1] = molecular target: T1, Mitochondrial peptide methionine sulfoxide reductase (Bos taurus, UniProt P54149); type: functional;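 also: absorbance read-out, biochemical high-throughput dose-response screen for MsrA inhibitors, confirmatory; recombinant bovine MsrA coupled to E. coli TrxB with NADPH and selenocystamine; potency is for inhibitors of MsrA activity on DMSO substrate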
# T1 sequence (P54149 whole entry): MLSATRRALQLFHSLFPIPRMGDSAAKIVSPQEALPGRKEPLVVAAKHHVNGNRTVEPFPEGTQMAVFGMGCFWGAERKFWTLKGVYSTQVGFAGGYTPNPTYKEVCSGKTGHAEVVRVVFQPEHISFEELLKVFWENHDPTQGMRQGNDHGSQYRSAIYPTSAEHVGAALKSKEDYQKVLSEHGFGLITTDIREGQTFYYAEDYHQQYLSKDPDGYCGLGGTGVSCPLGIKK
# Beta Lactamase = Beta Lactamase (Pseudomonas aeruginosa, UniProt Q932Y6); experiment: beta-lactamase reporter inhibitor potency, dose response, artefact control for TLR9-MyD88 binding inhibitor project, BLA reporter cells, FRET fluorescence (AID 588341); type: cell-based;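 also: cell based assay in CHO-K1 cells stably expressing beta-lactamase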
# CHO = experiment: cytotoxicity in TLR9-MyD88 CHO cells, dose response, cytotoxicity control for TLR9-MyD88 binding inhibitor project, cell-based, luminescence (AID 588339); type: functional, hamster; details: Cricetulus griseus;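 also: CHO cells stably coexpressing TLR9 and MyD88 fusions from primary screen; compound exposure lasted 48 hours before viability readout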
# [2] = nonselective inhibitors of cellular cAMP signaling, dose response, counter-screen for MC4R biased antagonist project, cell-based, TR-FRET cAMP detection (AID 602305); type: functional;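 also: U2OS cells stimulated with forskolin near its EC80 as the cAMP inducer; potency is for inhibition of forskolin-stimulated cAMP signaling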
# Melanocortin receptor 4 = Melanocortin receptor 4 (Homo sapiens, UniProt P32245); experiment: MC4R antagonist potency on cAMP, dose response, cell-based, TR-FRET, biased antagonists (AID 602298); type: functional;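 also: antagonist potency against agonist-stimulated cAMP production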
# [3] = ARNT/TACC3 interaction disruptors, potency, confirmation, biochemical, AlphaScreen, cherry-picked samples (AID 651703); type: functional, Homo sapiens;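 also: His-tagged ARNT PAS-B domain paired with GST-TACC3 E629A dimer coactivator fragment; potency of inhibitors that break up the complex and lower AlphaScreen signal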
# [4] = molecular target: T2, Apoptotic protease-activating factor 1 (Homo sapiens, UniProt O14727); experiment: SAR analysis of small molecule Activators of Apaf-1 in a Fluorescent assay.; type: functional; details: read-out: EC50_Mean;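 also: caspase-3 cleavage of fluorogenic Rh110 DEVD substrate downstream of apoptosome activation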
# T2 sequence (O14727 whole entry): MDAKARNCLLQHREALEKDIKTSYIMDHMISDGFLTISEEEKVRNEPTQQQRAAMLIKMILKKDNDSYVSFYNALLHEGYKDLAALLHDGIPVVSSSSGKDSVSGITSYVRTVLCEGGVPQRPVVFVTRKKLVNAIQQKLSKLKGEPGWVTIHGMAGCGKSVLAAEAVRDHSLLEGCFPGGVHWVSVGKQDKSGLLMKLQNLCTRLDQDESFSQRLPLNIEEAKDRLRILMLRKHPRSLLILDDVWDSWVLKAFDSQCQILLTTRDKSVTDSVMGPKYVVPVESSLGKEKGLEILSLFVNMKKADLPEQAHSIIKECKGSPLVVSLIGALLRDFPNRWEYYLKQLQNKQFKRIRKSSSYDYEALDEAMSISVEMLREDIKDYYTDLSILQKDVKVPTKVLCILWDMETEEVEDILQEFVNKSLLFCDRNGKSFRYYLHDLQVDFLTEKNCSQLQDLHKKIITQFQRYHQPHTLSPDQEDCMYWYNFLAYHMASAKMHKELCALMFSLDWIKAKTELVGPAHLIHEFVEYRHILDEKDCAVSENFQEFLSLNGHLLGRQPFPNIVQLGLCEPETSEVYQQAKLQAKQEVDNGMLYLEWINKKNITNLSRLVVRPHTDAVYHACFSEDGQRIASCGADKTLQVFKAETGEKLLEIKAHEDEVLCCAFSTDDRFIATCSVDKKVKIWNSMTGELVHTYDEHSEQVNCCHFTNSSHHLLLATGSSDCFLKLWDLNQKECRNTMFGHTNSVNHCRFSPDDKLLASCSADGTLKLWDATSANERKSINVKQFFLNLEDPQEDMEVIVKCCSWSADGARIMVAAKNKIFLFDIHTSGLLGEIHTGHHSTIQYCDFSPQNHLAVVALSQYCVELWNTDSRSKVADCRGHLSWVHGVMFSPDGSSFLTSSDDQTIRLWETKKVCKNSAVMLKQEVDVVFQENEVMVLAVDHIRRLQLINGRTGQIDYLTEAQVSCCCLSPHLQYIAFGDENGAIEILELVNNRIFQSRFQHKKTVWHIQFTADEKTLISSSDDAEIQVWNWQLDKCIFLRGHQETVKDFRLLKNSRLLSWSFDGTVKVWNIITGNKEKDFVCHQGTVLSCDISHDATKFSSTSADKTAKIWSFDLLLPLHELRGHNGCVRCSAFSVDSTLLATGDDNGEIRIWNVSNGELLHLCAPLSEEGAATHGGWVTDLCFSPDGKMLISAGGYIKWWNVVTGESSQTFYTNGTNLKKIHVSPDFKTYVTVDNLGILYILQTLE
# [5] = molecular target: T3, ATP-dependent translocase ABCB1 (Homo sapiens, UniProt P08183); experiment: ABCG2 efflux pump inhibitor potency, dose response, Ig-MXP3 cells, JC-1, flow cytometry, set 2 (AID 504566); type: functional; details: read-out: EC50_MICROM_;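 also: flow cytometry median green fluorescence of retained JC-1 dye; potency of efflux pump inhibition measured as rising substrate retention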
# [6] = molecular target: T3, ATP-dependent translocase ABCB1; experiment: ABCB1 efflux inhibitor potency, dose response, Jurkat-DNR cells, JC-1, flow cytometry, set 2 (AID 504569); type: functional; details: read-out: EC50_MICROM_;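 also: potency of pump inhibitors that raise cellular JC-1 green fluorescence up to the nicardipine level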
# [7] = molecular target: Testis-specific serine/threonine-protein kinase 2 (Homo sapiens, UniProt Q96PF2); type: functional;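 also: part of the Navigating the Kinome panel, target entry STK22B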
# Sequence of Testis-specific serine/threonine-protein kinase 2 (Q96PF2 whole entry): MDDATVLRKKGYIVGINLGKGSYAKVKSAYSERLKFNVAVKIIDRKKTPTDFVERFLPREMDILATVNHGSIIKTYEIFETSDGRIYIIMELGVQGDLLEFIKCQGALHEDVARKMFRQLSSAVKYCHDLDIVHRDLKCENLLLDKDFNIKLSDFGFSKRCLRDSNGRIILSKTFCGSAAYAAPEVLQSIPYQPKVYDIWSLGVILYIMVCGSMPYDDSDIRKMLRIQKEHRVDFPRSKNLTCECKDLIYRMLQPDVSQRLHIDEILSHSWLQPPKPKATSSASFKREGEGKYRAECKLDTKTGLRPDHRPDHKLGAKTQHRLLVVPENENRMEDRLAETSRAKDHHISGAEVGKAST
# T3 sequence (P08183 whole entry): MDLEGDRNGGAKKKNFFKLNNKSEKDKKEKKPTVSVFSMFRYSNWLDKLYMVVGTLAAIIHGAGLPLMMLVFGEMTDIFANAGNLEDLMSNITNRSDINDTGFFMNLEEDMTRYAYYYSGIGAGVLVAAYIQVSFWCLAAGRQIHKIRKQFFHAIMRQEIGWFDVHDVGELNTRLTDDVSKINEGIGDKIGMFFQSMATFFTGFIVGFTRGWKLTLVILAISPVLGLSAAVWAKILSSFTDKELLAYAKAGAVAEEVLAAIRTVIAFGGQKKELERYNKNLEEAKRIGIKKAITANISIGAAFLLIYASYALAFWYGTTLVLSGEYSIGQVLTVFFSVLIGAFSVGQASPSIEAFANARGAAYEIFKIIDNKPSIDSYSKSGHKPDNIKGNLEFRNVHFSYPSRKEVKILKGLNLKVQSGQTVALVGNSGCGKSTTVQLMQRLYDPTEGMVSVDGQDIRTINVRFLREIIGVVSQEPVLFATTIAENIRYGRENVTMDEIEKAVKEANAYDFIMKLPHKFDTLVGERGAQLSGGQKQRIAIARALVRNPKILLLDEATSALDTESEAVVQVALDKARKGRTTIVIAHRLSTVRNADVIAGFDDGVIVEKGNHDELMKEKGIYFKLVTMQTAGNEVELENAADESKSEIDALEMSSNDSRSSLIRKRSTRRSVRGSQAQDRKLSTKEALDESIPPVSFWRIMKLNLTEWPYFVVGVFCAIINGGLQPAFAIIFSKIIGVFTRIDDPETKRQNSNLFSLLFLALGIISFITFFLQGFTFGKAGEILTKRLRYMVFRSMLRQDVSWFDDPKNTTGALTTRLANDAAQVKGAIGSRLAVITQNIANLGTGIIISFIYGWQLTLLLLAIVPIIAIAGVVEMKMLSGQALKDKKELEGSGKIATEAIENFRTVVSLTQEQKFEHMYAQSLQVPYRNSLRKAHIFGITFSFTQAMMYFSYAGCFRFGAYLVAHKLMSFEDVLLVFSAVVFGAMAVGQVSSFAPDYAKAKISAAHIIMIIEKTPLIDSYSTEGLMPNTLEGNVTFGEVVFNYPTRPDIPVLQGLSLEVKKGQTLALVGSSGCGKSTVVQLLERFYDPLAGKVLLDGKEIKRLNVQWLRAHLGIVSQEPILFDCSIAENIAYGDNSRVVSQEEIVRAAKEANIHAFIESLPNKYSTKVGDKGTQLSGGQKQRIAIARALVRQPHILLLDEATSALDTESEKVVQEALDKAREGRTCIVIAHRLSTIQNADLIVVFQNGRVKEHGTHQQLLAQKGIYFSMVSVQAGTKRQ
# Sequence of Melanocortin receptor 4 (P32245 whole entry, the tested form may be a part): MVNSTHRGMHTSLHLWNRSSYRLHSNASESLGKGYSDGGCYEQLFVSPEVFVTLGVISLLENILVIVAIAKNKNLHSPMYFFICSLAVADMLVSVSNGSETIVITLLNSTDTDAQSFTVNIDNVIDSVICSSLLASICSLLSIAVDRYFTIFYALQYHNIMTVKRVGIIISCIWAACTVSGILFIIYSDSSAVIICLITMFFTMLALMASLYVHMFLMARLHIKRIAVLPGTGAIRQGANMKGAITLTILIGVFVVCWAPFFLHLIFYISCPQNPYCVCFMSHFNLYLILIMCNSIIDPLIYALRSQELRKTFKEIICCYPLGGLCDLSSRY
# Sequence of Beta Lactamase (Q932Y6 whole entry, the tested form may be a part): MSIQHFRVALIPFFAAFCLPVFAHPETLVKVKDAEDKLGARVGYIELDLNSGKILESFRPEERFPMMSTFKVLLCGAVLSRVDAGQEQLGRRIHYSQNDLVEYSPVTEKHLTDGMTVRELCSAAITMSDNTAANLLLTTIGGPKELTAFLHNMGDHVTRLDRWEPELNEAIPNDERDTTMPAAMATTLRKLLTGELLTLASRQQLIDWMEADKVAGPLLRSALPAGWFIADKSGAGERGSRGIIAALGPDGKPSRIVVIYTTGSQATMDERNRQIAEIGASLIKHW
compound,measurement,setting,value
O=C(O)c1ccc(NS(=O)(=O)c2ccc3c(c2)C(=O)c2ccccc2C3=O)cc1,IC50,[1],91.2 µM (inactive)
O=C(NCc1ccco1)c1cccc2c1C(=O)c1ccc(N3CCC(Cc4ccccc4)CC3)cc1S2(=O)=O,IC50,Beta Lactamase,4.4 µM (active)
same,IC50,CHO,> 49.8 µM (inactive)
CCc1nc2ccc(C(=O)NCc3ccc4c(c3)OCO4)cn2c1N(CCC(C)C)CCN(C)C,IC50,[2],> 64.6 µM (inactive)
same,IC50,Melanocortin receptor 4,11.5 µM (inactive)
CC1CCCC(C)N1C(=O)COC(=O)c1ccc([N+](=O)[O-])o1 (configuration not stated),AC50,[3],95.7 µM (active)
O=C1CC2(CC(c3ccccc3Cl)=NO2)C(=O)N1c1ccc2ccccc2c1 (configuration not stated),EC50,[4],> 100 µM (inactive)
COc1ccc(/C=N/Nc2cc(C)nc(NS(=O)(=O)c3ccc(C)cc3)n2)cc1,IC50,[2],> 64.6 µM (inactive)
same,IC50,Melanocortin receptor 4,> 64.6 µM (inactive)
COc1ccc(-c2cc3nc(-c4ccccc4)cc(N4CCN(C(=O)c5ccccc5)CC4)n3n2)cc1,EC50,[5],720 nM (active)
same,EC50,[6],690 nM (active)
CC1CCN(C(=O)CC#N)CC1N(C)c1ncnc2[nH]ccc12 (configuration not stated),Ki,[7],> 1.58 µM (inactive)
